Test results reported in the NIST ThermoML archive (doi:10.1016/j.jct.2019.05.013).

Experiments:
[1] = wn = mass fraction of the nth substance listed; settings: 100 kPa, Liquid; for viscosity: Falling or rolling sphere viscometry; for mass density: Vibrating tube method
[2] = refractive index (Na D-line) (dimensionless); settings: 293.15 K; 101.33 kPa; Liquid; Standard Abbe refractometry

CO [methanol] + O
[1]
Settings	mass density, w1 = 0.1 [kg/m3]	mass density, w1 = 0.2 [kg/m3]	mass density, w1 = 0.3001 [kg/m3]	mass density, w1 = 0.4 [kg/m3]	mass density, w1 = 0.4999 [kg/m3]	viscosity, w1 = 0.1 [mPa·s]	viscosity, w1 = 0.2 [mPa·s]	viscosity, w1 = 0.3001 [mPa·s]	viscosity, w1 = 0.4 [mPa·s]	viscosity, w1 = 0.4999 [mPa·s]
273.15 K	984.19	972.46	960.61	945.89	928.63	2.575	3.315	3.636	3.623	3.312
293.15 K	981.29	966.62	951.49	934.6	915.53	1.316	1.623	1.782	1.824	1.747

O [water] + CO
[1], w2 = 0
Settings	mass density [kg/m3]	viscosity [mPa·s]
275.15 K	999.94	1.661
293.15 K	–	0.998

CO [methanol]
Settings	refractive index
[2]	1.32858
